Measurements published in ChEMBL document CHEMBL1221180, “Metabolic installation of thiols into sialic acid modulates adhesion and stem cell biology” (Nat Chem Biol, 2006).
Activity calls are given as the source filed them. No cut-off for these calls is given here.

How the values were obtained:
Jurkat [1] = experiment: Increase in cell surface thiol level in human Jurkat cells at 40 uM after 2 days by avidin-FITC staining-based FACS analysis relative to untreated control; format: functional
Jurkat [2] = experiment: Increase in cell surface thiol level in human Jurkat cells at 10 uM after 64 hrs by avidin-FITC staining-based FACS analysis relative to untreated control; format: functional
Jurkat [3] = experiment: Increase in cell surface thiol level in human Jurkat cells at 160 uM after 64 hrs by avidin-FITC staining-based FACS analysis relative to untreated control; format: functional
Jurkat [4] = experiment: Increase in cell surface thiol level in human Jurkat cells at 320 uM after 64 hrs by avidin-FITC staining-based FACS analysis relative to untreated control; format: functional
Jurkat [5] = experiment: Increase in N-thioglycolylneuraminic acid level in human Jurkat cells at 10 uM after 2 hrs by avidin-FITC staining-based FACS analysis in presence of disulfide reducing agent TCEP relative to untreated control; format: functional
Jurkat [6] = experiment: Increase in N-thioglycolylneuraminic acid level in human Jurkat cells at 10 uM after 2 hrs by avidin-FITC staining-based FACS analysis in absence of disulfide reducing agent TCEP relative to untreated control; format: functional
Jurkat [7] = experiment: Induction of human Jurkat cell adhesion assessed as spontaneous clustering of cells at 50 uM after 2 days by inverted microscopy; format: functional, cell-based
Jurkat [8] = experiment: Induction of human Jurkat cell adhesion assessed as covalent cellular attachment to maleimide functionalized BSA-coated superaldehyde glass surface at 100 uM after 48 hrs by fluorescence microscopy; format: functional, cell-based
Jurkat [9] = experiment: Induction of human Jurkat cell adhesion assessed as covalent cellular attachment to BSA-coated superaldehyde glass surface at 100 uM after 48 hrs by fluorescence microscopy in absence of maleimide coating; format: functional, cell-based
Jurkat [10] = experiment: Cytotoxicity against human Jurkat cells at 100 uM after 48 hrs; format: cell-based
Lvec [11] = experiment: Increase in N-thioglycolylneuraminic acid level in human LVEC at 10 uM after 7 days by avidin-FITC staining-based FACS analysis relative to untreated control; format: functional
Lvec [12] = experiment: Increase in N-thioglycolylneuraminic acid level in human LVEC after 7 days by avidin-FITC staining-based FACS analysis relative to untreated control; format: functional, cell-based
Lvec [13] = experiment: Increase in N-thioglycolylneuraminic acid level in human LVEC at 10 uM after 3 days by avidin-FITC staining-based FACS analysis; format: functional, cell-based
Lvec [14] = experiment: Effect on human LVEC cell morphology cultured on gold-coated cover slips at 10 uM measured on day 9 post treatment by DAPI staining-based confocal microscopy; format: functional
[15] = Induction of human LVEC cell differentiation into neural cell lineage cultured on gold-coated cover slips assessed as effect on cytoskeleton distribution at 10 uM measured on day 9 post treatment by DAPI staining-based confocal microscopy; format: functional
[16] = Decrease in human LVEC cell proliferation at 10 uM for 3 days followed by second treatment of 50 uM on day 4 measured on day 9 by nestin immunostaining; format: cell-based; settings: 72 h
Lvec [17] = experiment: Increase in beta-casein expression in human LVEC cultured on gold-coated cover slips at 10 uM after 13 days by oregon green 488 phalloidin and DAPI staining; format: functional, cell-based
Lvec [18] = experiment: Translocation of beta-casein into nucleus of human LVEC cultured on gold-coated cover slips at 10 uM after 13 days by oregon green 488 phalloidin and DAPI staining; format: functional, cell-based
Lvec [19] = experiment: Mild increase in beta-casein expression in human LVEC cultured on glass surface at 10 uM after 13 days by oregon green 488 phalloidin and DAPI staining; format: functional, cell-based
Jurkat [20] = experiment: Modulation of cell surface thiol level in human Jurkat cells at 100 uM after 64 hrs by avidin-FITC staining-based FACS analysis; format: functional

Compound: CC(=O)OC[C@H]1O[C@H](OC(C)=O)[C@@H](NC(=O)CSC(C)=O)[C@@H](OC(C)=O)[C@@H]1OC(C)=O
- fold change (FC) (Jurkat [1]): 14
- fold change (FC) (Jurkat [2]): 19
- fold change (FC) (Jurkat [3]): 40
- fold change (FC) (Jurkat [4]): 34
- fold change (FC) (Jurkat [5]): 120
- fold change (FC) (Jurkat [6]): 13
- Activity (Jurkat [7]): Active
- Activity (Jurkat [8]): Active
- Activity (Jurkat [9]): inactive
- Activity (Jurkat [10]): Non-toxic
- fold change (FC) (Lvec [11]): 15
- Activity (Lvec [12]): Dose-dependent effect
- Activity (Lvec [13]): Active
- Activity (Lvec [14]): Active
- Activity [15]: Active
- Activity [16]: Toxic
- Activity (Lvec [17]): Active
- Activity (Lvec [18]): Active
- Activity (Lvec [19]): Active

Compound: CC(=O)CCC(=O)N[C@@H]1C(OC(C)=O)O[C@H](COC(C)=O)[C@@H](OC(C)=O)[C@@H]1OC(C)=O (stereo partly specified)
- fold change (FC) (Jurkat [4]): 34

Compound: CC(=O)OCC(=O)N[C@@H]1[C@@H](OC(C)=O)O[C@H](COC(C)=O)[C@@H](OC(C)=O)[C@@H]1OC(C)=O
- Activity (Jurkat [20]): inactive
- Activity (Jurkat [7]): Active
- Activity (Jurkat [8]): Active
- Activity (Jurkat [9]): inactive
- Activity (Lvec [14]): inactive

Compound: CC(=O)N[C@@H]1C(OC(C)=O)O[C@H](COC(C)=O)[C@@H](OC(C)=O)[C@@H]1OC(C)=O (stereo partly specified)
- fold change (FC) (Jurkat [4]): 34
